18 compounds from patent publication US12227520B2 (priority 2019, dated 2025) can be followed below.

One data set concerns pLai RLuc reporter virus. Briefly: microbe, parasite or virus in culture. The data set is classed as cell-based, HIV. The following applies: Human immunodeficiency virus 1, 72 h. The method, boiled down: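 Read-out is Renilla luciferase after 72 h at 37 °C in MT-4 cells infected 2 h beforehand with pLai RLuc reporter virus; compounds diluted 1:3.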
The nature of data set [1]: Cytotoxicity assay in MT-4 cells. The data set is classed as cell-based, human. The following applies: human, uninfected MT-4 cells, 5 days incubation; read-out: CC50. The method, boiled down:
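For cytotoxicity, uninfected MT-4 cells were incubated with compounds 5 days at 37 °C, with 10 μM puromycin marking base cytotoxicity. Parallel plates used HIV-1 IIIB-infected (1:250 stock dilution) or mock cells with 5 μM AZT and no-drug controls. Read-out: CellTiter-Glo chemiluminescence.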

The next data set deals with HIV-1 (IIIB). The experiment in a line: Antiviral assay in MT-4 cells (HIV MT-4 antiviral assay). The data set is classed as cell-based. The following applies: Human immunodeficiency virus 1, IIIB, MT4, 120 h, HIV-1 (IIIB) in MT-4 cells, 5 days incubation; read-out: EC50. The method, boiled down: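 Read-out is CellTiter-Glo chemiluminescence after 5-day culture at 37° C, giving protection of MT-4 cells from HIV-1 IIIB cytopathicity. Compounds tested in 1:3 dilution series in complete RPMI; controls were no drug, mock infection and 5 μM AZT.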

[2] abbreviates: read-out: Antiviral Serum Shift RLuc 50% HS, HS/CCM (RPMI media, 10% FBS, 50% HS, 1% P/S), 72-h incubation.
[3] abbreviates: read-out: Antiviral Serum Shift RLuc CCM, CCM (RPMI media, 10% FBS, 1% P/S), 72-h incubation.

Where two headings read alike, the source gives them in different places.

One may read the CC50 as the concentration at which the toxic effect on the cells reaches its halfway point. For `C[C@H]1C[C@H]2CN(C(=O)c3c(O)c(=O)c(C(=O)NCc4c(F)cc(F)cc4F)cn32)[C@@H](C)C1` [Example 142-2, (3S,5R,7S)-12-hydroxy-3,5-dimethyl-1,11-dioxo-N-(2,4,6-trifluorobenzyl)-1,4,5,6,7,11-hexahydro-3H-2,7-methanopyrido[1,2-a][1,4]diazonine-10-carboxamide], the EC50 came out at 2.81 nM in the data set on pLai RLuc reporter virus (setting [2]), 0.363 nM with pLai RLuc reporter virus (setting [3]) and 1.87 nM in the data set with HIV-1 (IIIB). Also, the CC50 at 5 days in data set [1] worked out at 13600 nM.

Regarding `O=C(NCc1cccc(Cl)c1F)c1cn2c(c(O)c1=O)C(=O)N1Cc3cc(F)c(F)cc3C[C@@H]2C1` [Example 143-1, (6R)—N-(3-chloro-2-fluorobenzyl)-9,10-difluoro-1-hydroxy-2,14-dioxo-2,7,12,14-tetrahydro-6H-6,13-methanobenzo[f]pyrido[1,2-a][1,4]diazonine-3-carboxamide], the EC50 in the data set with pLai RLuc reporter virus (setting [2]) stood at 132 nM; in the data set on pLai RLuc reporter virus (setting [3]), 4.75 nM; in the data set with HIV-1 (IIIB), 22.7 nM. For the same compound, the CC50 at 5 days in data set [1] was > 50000 nM.

As for `C[C@@H]1N2C[C@H](CCC1(C)F)n1cc(C(=O)NCc3c(F)cc(F)cc3F)c(=O)c(O)c1C2=O` (stereo partly drawn) [Example 144-1, (3S,7S)-4-fluoro-12-hydroxy-3,4-dimethyl-1,11-dioxo-N-(2,4,6-trifluorobenzyl)-1,4,5,6,7,11-hexahydro-3H-2,7-methanopyrido[1,2-a][1,4]diazonine-10-carboxamide], the EC50 in the data set on pLai RLuc reporter virus (setting [2]) came to 2.63 nM; with pLai RLuc reporter virus (setting [3]), 0.285 nM; in the data set on HIV-1 (IIIB), 1.65 nM. Also, the half-maximal cytotoxic concentration (CC50) at 5 days in data set [1] was 9180 nM.

Regarding `CC1=CC[C@H]2CN(C(=O)c3c(O)c(=O)c(C(=O)NCc4c(F)cc(F)cc4F)cn32)[C@H]1C` [Example 144-2, (3S,7S)-12-hydroxy-3,4-dimethyl-1,11-dioxo-N-(2,4,6-trifluorobenzyl)-1,6,7,11-tetrahydro-3H-2,7-methanopyrido[1,2-a][1,4]diazonine-10-carboxamide], the EC50 in the data set on pLai RLuc reporter virus (setting [2]) was determined as 4.46 nM; in the data set with pLai RLuc reporter virus (setting [3]) it was 0.469 nM; in the data set on HIV-1 (IIIB), 1.98 nM. Further, the CC50 at 5 days in data set [1] worked out at 13900 nM.

With `O=C(NCc1c(F)cc(F)cc1F)c1cn2c(c(O)c1=O)C(=O)N1Cc3cc(F)ccc3C[C@H]2C1` [Example 145, (6S)-10-fluoro-1-hydroxy-2,14-dioxo-N-(2,4,6-trifluorobenzyl)-2,7,12,14-tetrahydro-6H-6,13-methanobenzo[f]pyrido[1,2-a][1,4]diazonine-3-carboxamide], the EC50 worked out at 0.92 nM in the data set with pLai RLuc reporter virus (setting [2]), 0.218 nM in the data set with pLai RLuc reporter virus (setting [3]) and 0.822 nM in the data set with HIV-1 (IIIB). Besides, the half-maximal cytotoxic concentration (CC50) at 5 days in data set [1] came to 8850 nM.

On to `O=C(NCc1ccc(F)cc1F)c1cn2c(c(O)c1=O)C(=O)N1Cc3cc(F)ccc3C[C@H]2C1` [Example 146, (6S)—N-(2,4-difluorobenzyl)-10-fluoro-1-hydroxy-2,14-dioxo-2,7,12,14-tetrahydro-6H-6,13-methanobenzo[f]pyrido[1,2-a][1,4]diazonine-3-carboxamide], for which the figures for the EC50 with pLai RLuc reporter virus (setting [2]), in the data set with pLai RLuc reporter virus (setting [3]) and in the data set on HIV-1 (IIIB) were 1.12 nM, 0.227 nM and 1.76 nM, respectively. Also, the CC50 at 5 days in data set [1] is > 50000 nM.

`O=C(NCc1c(F)cc(F)cc1F)c1cn2c(c(O)c1=O)C(=O)N1CCc3ccc(F)cc3[C@H]2C1` [Example 147, (13S)-11-fluoro-4-hydroxy-3,5-dioxo-N-(2,4,6-trifluorobenzyl)-3,5,8,13-tetrahydro-7H-6,13-methanobenzo[g]pyrido[1,2-a][1,4]diazonine-2-carboxamide]: the EC50 turned out to be 3.64 nM in the data set with pLai RLuc reporter virus (setting [2]), 0.375 nM in the data set with pLai RLuc reporter virus (setting [3]) and 2.14 nM in the data set with HIV-1 (IIIB). The CC50 at 5 days in data set [1] was 6910 nM.

As for `C[C@H]1C=CC[C@H]2CN1C(=O)c1c(O)c(=O)c(C(=O)NCc3c(F)cc(F)cc3F)cn12` [Example 148, (3S,7S)-12-hydroxy-3-methyl-1,11-dioxo-N-(2,4,6-trifluorobenzyl)-1,6,7,11-tetrahydro-3H-2,7-methanopyrido[1,2-a][1,4]diazonine-10-carboxamide], the EC50 in the data set on pLai RLuc reporter virus (setting [2]) turned out to be 6.34 nM; in the data set with pLai RLuc reporter virus (setting [3]), 0.182 nM; with HIV-1 (IIIB) it was 1.67 nM. The half-maximal cytotoxic concentration (CC50) at 5 days in data set [1] was 13800 nM.

Take `C[C@H]1C=CC[C@H]2CN1C(=O)c1c(O)c(=O)c(C(=O)NCc3ccc(F)cc3F)cn12` [Example 149, (3S,7S)—N-(2,4-difluorobenzyl)-12-hydroxy-3-methyl-1,11-dioxo-1,6,7,11-tetrahydro-3H-2,7-methanopyrido[1,2-a][1,4]diazonine-10-carboxamide]: the EC50 with pLai RLuc reporter virus (setting [2]) stood at 2.97 nM; in the data set with pLai RLuc reporter virus (setting [3]), 0.255 nM; in the data set with HIV-1 (IIIB), 1.59 nM. In data set [1], the CC50 at 5 days was determined as 10000 nM.

`C[C@@H]1CC[C@H]2C[C@@]23CN1C(=O)c1c(O)c(=O)c(C(=O)NCc2c(F)cc(F)cc2F)cn13` [Example 150, (1aS,4R,11aS)-7-hydroxy-4-methyl-6,8-dioxo-N-(2,4,6-trifluorobenzyl)-1a,2,3,4,6,8-hexahydro-1H-5,11a-methanocyclopropa[h]pyrido[1,2-a][1,4]diazonine-9-carboxamide]: the EC50 in the data set with pLai RLuc reporter virus (setting [2]) is 4.41 nM; in the data set on pLai RLuc reporter virus (setting [3]), 0.171 nM; in the data set on HIV-1 (IIIB), 1.98 nM. The CC50 at 5 days in data set [1] came out at 8490 nM.

For the compound `C[C@@H]1CC[C@H](C)[C@@H]2CN1C(=O)c1c(O)c(=O)c(C(=O)NCc3c(F)cc(F)cc3F)cn12` [Example 151-1, (3R,6S,7R)-12-hydroxy-3,6-dimethyl-1,11-dioxo-N-(2,4,6-trifluorobenzyl)-1,4,5,6,7,11-hexahydro-3H-2,7-methanopyrido[1,2-a][1,4]diazonine-10-carboxamide], the results for the EC50 with pLai RLuc reporter virus (setting [2]), in the data set with pLai RLuc reporter virus (setting [3]) and in the data set on HIV-1 (IIIB) were 1140 nM, 0.729 nM and 4.27 nM, respectively. In data set [1], the cytotoxic concentration (CC50) at 5 days worked out at 14700 nM.

Regarding `C[C@@H]1CC[C@@H](C)N2C[C@H]1n1cc(C(=O)NCc3c(F)cc(F)cc3F)c(=O)c(O)c1C2=O` [Example 151-2, (3R,6R,7S)-12-hydroxy-3,6-dimethyl-1,11-dioxo-N-(2,4,6-trifluorobenzyl)-1,4,5,6,7,11-hexahydro-3H-2,7-methanopyrido[1,2-a][1,4]diazonine-10-carboxamide], the EC50 is 7.22 nM in the data set with pLai RLuc reporter virus (setting [2]), 0.44 nM in the data set with pLai RLuc reporter virus (setting [3]) and 1.75 nM in the data set on HIV-1 (IIIB). Besides, the CC50 at 5 days in data set [1] stood at 7200 nM.

For the compound `C[C@H]1C(F)=CC[C@H]2CN1C(=O)c1c(O)c(=O)c(C(=O)NCc3c(F)cc(F)cc3F)cn12` [Example 154-1, (3S,7S)-4-fluoro-12-hydroxy-3-methyl-1,11-dioxo-N-(2,4,6-trifluorobenzyl)-1,6,7,11-tetrahydro-3H-2,7-methanopyrido[1,2-a][1,4]diazonine-10-carboxamide], the EC50 with pLai RLuc reporter virus (setting [2]) is 4.29 nM; in the data set on pLai RLuc reporter virus (setting [3]), 0.297 nM; with HIV-1 (IIIB), 1.64 nM. Further, the CC50 at 5 days in data set [1] was found to be 25700 nM.

As to `C[C@@H]1N2C[C@H](CCC1(F)F)n1cc(C(=O)NCc3c(F)cc(F)cc3F)c(=O)c(O)c1C2=O` [Example 154-2, (3S,7S)-4,4-difluoro-12-hydroxy-3-methyl-1,11-dioxo-N-(2,4,6-trifluorobenzyl)-1,4,5,6,7,11-hexahydro-3H-2,7-methanopyrido[1,2-a][1,4]diazonine-10-carboxamide], the EC50 with pLai RLuc reporter virus (setting [2]) was 7.14 nM; with pLai RLuc reporter virus (setting [3]), 0.306 nM; with HIV-1 (IIIB) it was 1.94 nM. Besides, in data set [1], the CC50 at 5 days was determined as 15200 nM.

On to `C[C@]12CC=CCN(C1)C(=O)c1c(O)c(=O)c(C(=O)NCc3c(F)cc(F)cc3F)cn12` [Example 156, (7S)-12-hydroxy-7-methyl-1,11-dioxo-N-(2,4,6-trifluorobenzyl)-1,6,7,11-tetrahydro-3H-2,7-methanopyrido[1,2-a][1,4]diazonine-10-carboxamide], for which the values for the EC50 in the data set on pLai RLuc reporter virus (setting [2]), in the data set with pLai RLuc reporter virus (setting [3]) and with HIV-1 (IIIB) were 41.3 nM, 0.187 nM and 1.75 nM, respectively. Also, the CC50 at 5 days in data set [1] worked out at 13700 nM.

Regarding `C[C@H]1CC[C@H](F)[C@H]2CN1C(=O)c1c(O)c(=O)c(C(=O)NCc3c(F)cc(F)cc3F)cn12` [Example 157, (3S,6S,7R)-6-fluoro-12-hydroxy-3-methyl-1,11-dioxo-N-(2,4,6-trifluorobenzyl)-1,4,5,6,7,11-hexahydro-3H-2,7-methanopyrido[1,2-a][1,4]diazonine-10-carboxamide], the EC50 is 5.75 nM with pLai RLuc reporter virus (setting [2]), 1.61 nM in the data set with pLai RLuc reporter virus (setting [3]) and 5.36 nM in the data set on HIV-1 (IIIB). In addition, in data set [1], the CC50 at 5 days was determined as 23700 nM.

As for `C[C@H]1[C@H](F)CC[C@H]2CN1C(=O)c1c(O)c(=O)c(C(=O)NCc3c(F)cc(F)cc3F)cn12` [Example 158, (3S,4R,7S)-4-fluoro-12-hydroxy-3-methyl-1,11-dioxo-N-(2,4,6-trifluorobenzyl)-1,4,5,6,7,11-hexahydro-3H-2,7-methanopyrido[1,2-a][1,4]diazonine-10-carboxamide], the EC50 in the data set on pLai RLuc reporter virus (setting [2]) is 49.7 nM; with pLai RLuc reporter virus (setting [3]), 0.306 nM; in the data set on HIV-1 (IIIB), 1.67 nM. In data set [1], the CC50 at 5 days turned out to be 8830 nM.

As to `O=C(NCc1cccc(F)c1F)c1cn2c(c(O)c1=O)C(=O)N1CCCC[C@H]2C1` [Example 160, (7S)—N-(2,3-difluorobenzyl)-12-hydroxy-1,11-dioxo-1,4,5,6,7,11-hexahydro-3H-2,7-methanopyrido[1,2-a][1,4]diazonine-10-carboxamide], the EC50 in the data set on pLai RLuc reporter virus (setting [2]) is 1.19 nM; in the data set with pLai RLuc reporter virus (setting [3]), 0.368 nM; in the data set on HIV-1 (IIIB), 1.52 nM. Moreover, the half-maximal cytotoxic concentration (CC50) at 5 days in data set [1] came out at 11400 nM.
